Assay results from patent US9765075B2, “Substituted bridged urea analogs as sirtuin modulators” (GLAXOSMITHKLINE LLC, priority 2013, dated 2017).

Biological target: T1, SIRT1 (Homo sapiens, UniProt Q96EB6)
T1 sequence (Q96EB6 1-747): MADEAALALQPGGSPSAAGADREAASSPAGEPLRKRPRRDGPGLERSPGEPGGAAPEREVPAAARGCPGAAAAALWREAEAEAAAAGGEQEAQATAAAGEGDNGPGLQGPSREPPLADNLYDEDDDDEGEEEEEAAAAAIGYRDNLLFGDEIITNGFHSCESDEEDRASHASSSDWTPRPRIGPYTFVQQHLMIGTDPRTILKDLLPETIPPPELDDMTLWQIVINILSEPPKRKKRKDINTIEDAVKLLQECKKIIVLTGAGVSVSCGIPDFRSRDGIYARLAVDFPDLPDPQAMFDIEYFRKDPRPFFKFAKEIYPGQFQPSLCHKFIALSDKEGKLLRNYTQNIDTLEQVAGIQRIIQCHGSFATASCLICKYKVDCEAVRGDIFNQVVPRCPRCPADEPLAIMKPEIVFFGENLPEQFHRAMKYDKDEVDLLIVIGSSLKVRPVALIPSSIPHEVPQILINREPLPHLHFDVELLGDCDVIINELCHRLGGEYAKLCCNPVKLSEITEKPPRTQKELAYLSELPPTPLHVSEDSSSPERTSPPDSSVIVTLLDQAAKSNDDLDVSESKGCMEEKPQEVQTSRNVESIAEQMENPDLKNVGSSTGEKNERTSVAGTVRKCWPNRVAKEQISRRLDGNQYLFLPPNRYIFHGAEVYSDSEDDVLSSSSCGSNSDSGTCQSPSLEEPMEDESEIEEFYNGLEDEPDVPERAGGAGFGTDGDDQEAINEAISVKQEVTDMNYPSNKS
Test: Trp mass spectrometry assay (SIRT1 activation)
Type: biochemical
Settings: Trp mass spectrometry assay; for Tryp AVG EC1.5 (μM): EC1.5 = concentration giving 150% activation of SIRT1; for Emax: percent maximum fold activation of SIRT1, read-out: Tryp % Fold Act
Outline: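 N-His-tagged SIRT1 (10 nM), expressed in E. coli, was incubated with 0.5 μM Ac-RHKK(Ac)W-NH2 peptide and 120 μM NAD+ for 25 min at 25 °C in HEPES pH 7.5 with […]. The reaction was stopped with formic acid and O-acetyl-ADP-ribose or deacetylated peptide was quantified by mass spectrometry. Results are given as EC1.5 and percent maximal activation relative to DMSO control.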

| SMILES | Tryp AVG EC1.5 (μM) | Emax |
| --- | --- | --- |
| NCCCCCC(=O)NCc1cn(-c2cccc(NC(=O)N3c4nc(-c5cccc(C(F)(F)F)c5)ccc4N4CC[C@H]3C4)c2)nn1 [Example 639] | A (EC1.5<1 μM) | ≥ 150% |
| NCc1cnnn1-c1cccc(NC(=O)N2c3nc(-c4cccc(C(F)(F)F)c4)ccc3N3CC[C@H]2C3)c1 [Example 640] | A (EC1.5<1 μM) | ≥ 150% |
| O=C(Nc1ccc(Oc2ccccc2)cc1)N1c2nc(-c3cccc(C(F)(F)F)c3)ccc2N2CC[C@H]1C2 [Example 641] | C (EC1.5>25 μM) | < 150% |
| CS(=O)(=O)Nc1cccc(NC(=O)N2c3nc(-c4cccc(C(F)(F)F)c4)ccc3N3CC[C@H]2C3)c1 [Example 642] | A (EC1.5<1 μM) | ≥ 150% |
| NS(=O)(=O)c1ccc(NC(=O)N2c3nc(-c4cccc(C(F)(F)F)c4)ccc3N3CC[C@H]2C3)cc1 [Example 643] | A (EC1.5<1 μM) | ≥ 150% |
| COc1cc(NC(=O)N2c3nc(-c4cccc(C(F)(F)F)c4)ccc3N3C[C@@H](O)[C@H]2C3)ncn1 [Example 644] | B (EC1.5 1-25 μM) | ≥ 150% |
| O=C(Nc1cnccn1)N1c2nc(-c3cccc(C(F)(F)F)c3)ccc2N2C[C@@H](O)[C@H]1C2 [Example 645] | A (EC1.5<1 μM) | ≥ 150% |
| O=C(Nc1nncs1)N1c2nc(-c3cccc(C(F)(F)F)c3)ccc2N2CC[C@H]1C2 [Example 646] | A (EC1.5<1 μM) | ≥ 150% |
| CCc1nnc(NC(=O)N2c3nc(-c4cccc(C(F)(F)F)c4)ccc3N3CC[C@H]2C3)s1 [Example 647] | A (EC1.5<1 μM) | ≥ 150% |
| O=C(Nc1nnc(-c2ccccc2)s1)N1c2nc(-c3cccc(C(F)(F)F)c3)ccc2N2CC[C@H]1C2 [Example 648] | A (EC1.5<1 μM) | ≥ 150% |
| CC(C)(C)c1nnc(NC(=O)N2c3nc(-c4cccc(C(F)(F)F)c4)ccc3N3CC[C@H]2C3)s1 [Example 649] | B (EC1.5 1-25 μM) | ≥ 150% |
| O=C(Nc1nnc(C(F)(F)F)s1)N1c2nc(-c3cccc(C(F)(F)F)c3)ccc2N2CC[C@H]1C2 [Example 650] | C (EC1.5>25 μM) | < 150% |
| O=C(Nc1nnc(-c2cccnc2)s1)N1c2nc(-c3cccc(C(F)(F)F)c3)ccc2N2CC[C@H]1C2 [Example 651] | A (EC1.5<1 μM) | ≥ 150% |
| O=C(Nc1cccc(Br)n1)N1c2nc(-c3cccc(C(F)(F)F)c3)ccc2N2CC[C@H]1C2 [Example 652] | A (EC1.5<1 μM) | ≥ 150% |
| O=C(Nc1cccc(-c2ccsc2)n1)N1c2nc(-c3cccc(C(F)(F)F)c3)ccc2N2CC[C@H]1C2 [Example 653] | A (EC1.5<1 μM) | ≥ 150% |
| O=C(Nc1cccc(-c2ccoc2)n1)N1c2nc(-c3cccc(C(F)(F)F)c3)ccc2N2CC[C@H]1C2 [Example 654] | A (EC1.5<1 μM) | ≥ 150% |
| O=C(Nc1cccc(-c2cccnc2)n1)N1c2nc(-c3cccc(C(F)(F)F)c3)ccc2N2CC[C@H]1C2 [Example 655] | A (EC1.5<1 μM) | ≥ 150% |
| CCCn1cc(-c2cccc(NC(=O)N3c4nc(-c5cccc(C(F)(F)F)c5)ccc4N4CC[C@H]3C4)n2)cn1 [Example 656] | A (EC1.5<1 μM) | ≥ 150% |
| Cc1noc(C)c1-c1cccc(NC(=O)N2c3nc(-c4cccc(C(F)(F)F)c4)ccc3N3CC[C@H]2C3)n1 [Example 657] | A (EC1.5<1 μM) | ≥ 150% |
| O=C(Nc1cccc(C2=CCOCC2)n1)N1c2nc(-c3cccc(C(F)(F)F)c3)ccc2N2CC[C@H]1C2 [Example 658] | A (EC1.5<1 μM) | ≥ 150% |

| SMILES | Tryp AVG EC1.5 (μM) | Emax |
| --- | --- | --- |
| NC(=O)c1ccc(NC(=O)N2c3nc(-c4cccc(C(F)(F)F)c4)ccc3N3CC[C@H]2C3)cc1 [Example 659] | A (EC1.5<1 μM) | ≥ 150% |
| O=C(Nc1cccc(-c2cccnc2)c1)N1c2nc(-c3cccc(C(F)(F)F)c3)ccc2N2CC[C@H]1C2 [Example 660] | A (EC1.5<1 μM) | ≥ 150% |
| O=C(NCCn1ccnc1)N1c2nc(-c3cccc(C(F)(F)F)c3)ccc2N2CC[C@H]1C2 [Example 661] | C (EC1.5>25 μM) | ≥ 150% |
| O=C(Nc1cc(-c2cnco2)ccn1)N1c2nc(-c3cccc(C(F)(F)F)c3)ccc2N2C[C@@H](O)[C@H]1C2 [Example 662] | B (EC1.5 1-25 μM) | ≥ 150% |
| O=C(Nc1cccnc1)N1c2nc(-c3cccc(C(F)(F)F)c3)ccc2N2C[C@@H](O)[C@H]1C2 [Example 663] | A (EC1.5<1 μM) | ≥ 150% |
| COc1cc(NC(=O)N2c3nc(-c4cccc(C(F)(F)F)c4)ccc3N3C[C@@H](O)[C@H]2C3)nc(OC)n1 [Example 664] | B (EC1.5 1-25 μM) | ≥ 150% |
| O=C(Nc1cccc(-c2cnco2)c1)N1c2nc(-c3cccc(C(F)(F)F)c3)ccc2N2C[C@@H](O)[C@H]1C2 [Example 665] | A (EC1.5<1 μM) | ≥ 150% |
| O=C(Nc1ccc2[nH]ncc2c1)N1c2nc(-c3cccc(C(F)(F)F)c3)ccc2N2CC[C@H]1C2 [Example 666] | A (EC1.5<1 μM) | ≥ 150% |
| O=C(Nc1cccc(-c2ccccn2)c1)N1c2nc(-c3cccc(C(F)(F)F)c3)ccc2N2CC[C@H]1C2 [Example 667] | A (EC1.5<1 μM) | ≥ 150% |
| CC(=O)c1ccc(NC(=O)N2c3nc(-c4cccc(C(F)(F)F)c4)ccc3N3CC[C@H]2C3)cc1 [Example 668] | A (EC1.5<1 μM) | ≥ 150% |
| O=C(Nc1ccncn1)N1c2nc(-c3cccc(C(F)(F)F)c3)ccc2N2C[C@@H](O)[C@H]1C2 [Example 669] | B (EC1.5 1-25 μM) | ≥ 150% |
| Cc1cncc(NC(=O)N2c3nc(-c4cccc(C(F)(F)F)c4)ccc3N3C[C@@H](O)[C@H]2C3)c1 [Example 670] | A (EC1.5<1 μM) | ≥ 150% |
| CC(=O)c1cccc(NC(=O)N2c3nc(-c4cccc(C(F)(F)F)c4)ccc3N3CC[C@H]2C3)c1 [Example 671] | A (EC1.5<1 μM) | ≥ 150% |
| O=C(Nc1ccc(Br)c(-c2cnco2)c1)N1c2nc(-c3cccc(C(F)(F)F)c3)ccc2N2CC[C@H]1C2 [Example 672] | A (EC1.5<1 μM) | ≥ 150% |
| O=C(NCCCc1ccccn1)N1c2nc(-c3cccc(C(F)(F)F)c3)ccc2N2CC[C@H]1C2 [Example 673] | B (EC1.5 1-25 μM) | ≥ 150% |
| O=C(NCCCc1cccnc1)N1c2nc(-c3cccc(C(F)(F)F)c3)ccc2N2CC[C@H]1C2 [Example 674] | B (EC1.5 1-25 μM) | ≥ 150% |
| O=C(Nc1ccccn1)N1c2nc(-c3cccc(Cl)c3)ccc2N2C[C@@H](O)[C@H]1C2 [Example 675] | B (EC1.5 1-25 μM) | ≥ 150% |
| Cc1cncc(NC(=O)N2c3nc(-c4cccc(Cl)c4)ccc3N3C[C@@H](O)[C@H]2C3)c1 [Example 676] | A (EC1.5<1 μM) | ≥ 150% |
| O=C(Nc1cncc(F)c1)N1c2nc(-c3cccc(Cl)c3)ccc2N2C[C@@H](O)[C@H]1C2 [Example 677] | B (EC1.5 1-25 μM) | ≥ 150% |
